Reference: patent publication US20260184706A1, “PHENYLSULFONAMIDE DERIVATIVES, PREPARATION METHOD THEREFOR, AND PHARMACEUTICAL COMPOSITION FOR PREVENTION OR TREATMENT OF CANCER CONTAINING SAME AS ACTIVE INGREDIENT” (Korea Research Institute of Chemical Technology, priority 2022, published 2026)
pIC50: −log10 of the molar value.

What was measured:
phosphorylated GCN2 = biological target: T1, phosphorylated GCN2 (Homo sapiens, UniProt Q9P2K8); assay: Inhibition of phosphorylated GCN2 under amino acid deficiency in HT-1080 cells, Western blot; format: cell-based; settings: compound 50 nM, 24 hours; for Phospho-GCN2 inhibition: symbols ◯ / X not defined
T1 construct: endogenous in cells; host or cells: HT-1080
T1 sequence (Q9P2K8 whole entry): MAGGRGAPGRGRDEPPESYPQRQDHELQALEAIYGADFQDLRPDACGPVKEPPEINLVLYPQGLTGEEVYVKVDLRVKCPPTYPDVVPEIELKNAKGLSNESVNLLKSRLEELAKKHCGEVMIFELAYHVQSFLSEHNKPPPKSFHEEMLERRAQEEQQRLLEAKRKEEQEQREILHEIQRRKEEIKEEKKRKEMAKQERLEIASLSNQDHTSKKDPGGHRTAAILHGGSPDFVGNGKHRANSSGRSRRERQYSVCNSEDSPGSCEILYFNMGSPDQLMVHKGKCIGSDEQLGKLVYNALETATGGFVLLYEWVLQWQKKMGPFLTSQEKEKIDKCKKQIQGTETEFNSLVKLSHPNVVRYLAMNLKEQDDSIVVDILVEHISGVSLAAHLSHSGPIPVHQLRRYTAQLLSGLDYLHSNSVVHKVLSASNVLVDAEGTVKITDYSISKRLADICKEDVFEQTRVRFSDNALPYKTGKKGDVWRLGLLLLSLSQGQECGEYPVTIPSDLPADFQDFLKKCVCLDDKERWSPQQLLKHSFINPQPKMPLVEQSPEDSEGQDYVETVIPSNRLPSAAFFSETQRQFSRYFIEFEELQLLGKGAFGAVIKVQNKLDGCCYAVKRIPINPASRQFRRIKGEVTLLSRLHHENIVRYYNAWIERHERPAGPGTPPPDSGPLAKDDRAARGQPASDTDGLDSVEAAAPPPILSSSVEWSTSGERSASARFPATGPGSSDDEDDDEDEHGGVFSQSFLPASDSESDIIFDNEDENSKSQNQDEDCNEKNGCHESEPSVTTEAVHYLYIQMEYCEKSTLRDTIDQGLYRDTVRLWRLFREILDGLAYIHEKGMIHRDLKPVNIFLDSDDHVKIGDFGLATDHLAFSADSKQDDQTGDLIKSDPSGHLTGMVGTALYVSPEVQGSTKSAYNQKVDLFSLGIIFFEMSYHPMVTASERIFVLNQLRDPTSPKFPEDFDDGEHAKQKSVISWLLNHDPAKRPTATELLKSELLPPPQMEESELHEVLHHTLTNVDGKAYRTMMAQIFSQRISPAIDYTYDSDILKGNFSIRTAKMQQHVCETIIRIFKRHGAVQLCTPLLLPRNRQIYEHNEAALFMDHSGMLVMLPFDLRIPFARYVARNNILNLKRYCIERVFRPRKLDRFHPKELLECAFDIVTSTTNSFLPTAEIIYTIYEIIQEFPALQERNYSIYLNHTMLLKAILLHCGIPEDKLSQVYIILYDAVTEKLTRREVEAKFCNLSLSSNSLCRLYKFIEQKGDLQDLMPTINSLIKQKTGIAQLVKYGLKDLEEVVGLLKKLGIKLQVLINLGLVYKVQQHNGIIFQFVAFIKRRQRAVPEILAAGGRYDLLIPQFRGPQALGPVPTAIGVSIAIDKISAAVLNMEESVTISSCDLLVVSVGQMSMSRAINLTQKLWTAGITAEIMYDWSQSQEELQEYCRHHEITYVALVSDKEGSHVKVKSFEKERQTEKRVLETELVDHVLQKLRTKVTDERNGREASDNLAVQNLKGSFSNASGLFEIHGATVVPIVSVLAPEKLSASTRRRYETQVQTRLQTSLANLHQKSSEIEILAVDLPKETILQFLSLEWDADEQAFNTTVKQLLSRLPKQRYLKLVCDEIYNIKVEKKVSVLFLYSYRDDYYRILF
Method: (§1) <Experimental Example 5> Evaluation of Inhibitory Efficacy of ISR-Related Kinase GCN2 Under Amino Acid Deficiency Condition Using Western Blot
(§2) HT-1080 cells, a human fibrosarcoma cell line, were cultured in RPMI-1640 medium supplemented with 10% FBS, penicillin (penicillin; 100 IU/ml), and streptomycin (streptomycin; 100 μg/ml). Cells (1×10^6 cells/ml) were seeded onto 100 mm plates (polypropylene tissue culture plate) and incubated for 24 hours in a 37° C., 5% CO2 incubator before being used for experiments.
(§3) The following method was used to achieve amino acid deficiency conditions in cells. After 24 hours of cell culture, the cells were cultured in amino acids and L-glutamine-free RPMI-1640 medium supplemented with 10% FBS, penicillin (100 IU/ml), and streptomycin (100 μg/ml). After 24 hours of cell culture in RPMI-1640 without amino acids and L-glutamine, the compound prepared at a concentration of 50 nM was dispensed onto each plate and cultured for 24 hours in a 37° C., 5% CO2 incubator.
(§4) In order to measure the signal transduction inhibitory efficacy of GCN among the ISR-related kinases according to the present invention, the following experiment was performed using SDS-PAGE. The fibrosarcoma cell line HT-1080 cells cultured on plates as described above were washed with PBS after removing the culture medium. After removing PBS, the cells were lysed by adding a radio-immunoprecipitation assay buffer (RIPA buffer) containing 50 mM Tris (pH 7.4), 150 mM NaCl, 1% NP-40, 0.5% sodium deoxycholate, 2 mM sodium fluoride, 2 mM EDTA, 0.1% SDS, and a protease/phosphatase inhibitor cocktail to the plate. After centrifugation at 4° C., 13,000×g for 15 minutes, the protein in the upper layer was collected, and the protein concentration was measured at 562 nm using BCA (bicinchoninc acid) reagent, and the amount of protein in all samples was prepared at 20-50 μg.
(§5) After making the total volume the same using the sample buffer and RIPA buffer, it was heated at 97° C. for 5 minutes. Then, electrophoresis was performed on 8% or 12% SDS-PAGE at 80 V for 30 minutes and at 160 V for 1 hour and 30 minutes. After electrophoresis, the SDS-PAGE gel was transferred to an NC membrane (nitrocellulose membrane) at 90 V for 2 hours. The NC membrane was placed in TBST (tris buffer saline tween-20; 20 mM tris, 137 mM sodium chloride, 0.1% tween-20, pH 8.0) containing 5% non-fat skim milk, placed on a shaker, and reacted at room temperature for 1 hour.
(§6) Each primary antibody was diluted in TBST containing 5% non-fat skim milk, poured onto the NC membrane, and reacted at 4° C. for 24 hours. The membrane was washed three times for 10 minutes each with TBST. The secondary antibodies (anti-rabbit IgG and anti-mouse IgG labeled with horseradish peroxidase (HRP)) were diluted in TBST containing 5% non-fat skim milk and reacted with the membrane at room temperature for 1 hour. Upon completion of the reaction, the membrane was washed three times with TBST for 10 minutes each. Protein expression bands were detected by a chemiluminescence image analyzer (Image Quant LAS 500) after the ECL solution was reacted with the NC membrane.
GCN2, a key kinase of the integrated stress response (ISR), is phosphorylated in response to amino acid deficiency.

ATF4 = assay: Inhibition of ATF4, downstream factor of ISR, in HT-1080 cells, Western blot (FIG. 1); format: cell-based, human; settings: amino acid deficiency, compound 50 nM, 24 hours
Method: as §1, §2, §3, §4, §5, §6
FIG. 1 is a set of photographs confirming the mechanism proteins that react upon ISR activation, wherein the numbers correspond to example numbers of the present invention. […] They are also known to have an effect on increasing the expression of CHOP (GADD153), the most downstream factor of the mechanism. […] Thus, in addition to the activation of ISR by amino acid deficiency, a significant effect can be expected on the mechanism of inhibition of the activity of PERK, an ISR-related kinase, due to endoplasmic reticulum stress response.

[1] = biological target: recombinant human GCN2 protein (Homo sapiens, UniProt Q9P2K8); assay: General control nonderepressible 2 (GCN2) inhibitory capacity, 33P-ATP filter assay; format: biochemical; settings: recombinant human GCN2, 70 uM [gamma-33P-ATP], 40 minutes, room temperature
Sequence of recombinant human GCN2 protein (Q9P2K8 whole entry): as above

[2] = biological target: recombinant human HRI protein (Homo sapiens, UniProt Q9BQI3); assay: eIF2-alpha kinase heme-regulated inhibitor (HRI) inhibitory capacity, 33P-ATP filter assay; format: biochemical; settings: 45 uM [gamma-33P-ATP], 40 minutes, room temperature
Sequence of recombinant human HRI protein (Q9BQI3 whole entry): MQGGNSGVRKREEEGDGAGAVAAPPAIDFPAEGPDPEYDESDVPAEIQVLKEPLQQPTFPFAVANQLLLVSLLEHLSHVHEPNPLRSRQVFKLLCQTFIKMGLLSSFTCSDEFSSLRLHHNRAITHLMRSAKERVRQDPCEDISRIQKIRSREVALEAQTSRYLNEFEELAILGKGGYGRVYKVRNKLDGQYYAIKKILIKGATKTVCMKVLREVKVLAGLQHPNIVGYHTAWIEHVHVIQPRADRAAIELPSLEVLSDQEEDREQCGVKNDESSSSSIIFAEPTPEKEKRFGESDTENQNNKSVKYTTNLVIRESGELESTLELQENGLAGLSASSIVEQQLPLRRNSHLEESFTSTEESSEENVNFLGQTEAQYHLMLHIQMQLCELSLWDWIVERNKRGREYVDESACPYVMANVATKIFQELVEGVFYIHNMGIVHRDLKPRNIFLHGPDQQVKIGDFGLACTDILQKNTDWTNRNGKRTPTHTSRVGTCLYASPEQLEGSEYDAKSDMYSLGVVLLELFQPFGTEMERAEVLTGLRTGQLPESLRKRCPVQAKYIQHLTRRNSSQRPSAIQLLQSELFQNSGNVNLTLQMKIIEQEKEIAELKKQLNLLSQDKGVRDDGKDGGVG
Method: <Experimental Example 3> Evaluation of eIF2-Alpha Kinase Heme-Regulated Inhibitor (HRI) Inhibitory Capacity
A recombinant human HRI protein was mixed with the compound in a reaction solution (50 mM Tris/HCl pH 7.5, 0.04 mM EDTA, 300 uM RSRSRSRSRSRSRSR, 10 mM Magnesium acetate, 45 uM [gamma-33P-ATP]) and reacted at room temperature for 40 minutes. Then, the reaction was terminated by adding phosphoric acid (0.5%) to the reaction mixture, and […] of the reaction solution was dropped onto a P30 filter. The filter was washed four times in a 0.425% phosphoric acid solution for 4 minutes, then […] washed once more in methanol, dried, and the HRI activity was measured by scintillation counting. […] The compound was diluted by 1/3 from the highest concentration of 1 uM and treated with a total of 9 concentrations to evaluate the degree of inhibition.

[3] = biological target: recombinant human PKR protein (Homo sapiens, UniProt P19525); assay: Protein kinase R (PKR) inhibitory capacity, 33P-ATP filter assay; format: biochemical; settings: 15 uM [gamma-33P-ATP], 40 minutes, room temperature
Sequence of recombinant human PKR protein (P19525 whole entry): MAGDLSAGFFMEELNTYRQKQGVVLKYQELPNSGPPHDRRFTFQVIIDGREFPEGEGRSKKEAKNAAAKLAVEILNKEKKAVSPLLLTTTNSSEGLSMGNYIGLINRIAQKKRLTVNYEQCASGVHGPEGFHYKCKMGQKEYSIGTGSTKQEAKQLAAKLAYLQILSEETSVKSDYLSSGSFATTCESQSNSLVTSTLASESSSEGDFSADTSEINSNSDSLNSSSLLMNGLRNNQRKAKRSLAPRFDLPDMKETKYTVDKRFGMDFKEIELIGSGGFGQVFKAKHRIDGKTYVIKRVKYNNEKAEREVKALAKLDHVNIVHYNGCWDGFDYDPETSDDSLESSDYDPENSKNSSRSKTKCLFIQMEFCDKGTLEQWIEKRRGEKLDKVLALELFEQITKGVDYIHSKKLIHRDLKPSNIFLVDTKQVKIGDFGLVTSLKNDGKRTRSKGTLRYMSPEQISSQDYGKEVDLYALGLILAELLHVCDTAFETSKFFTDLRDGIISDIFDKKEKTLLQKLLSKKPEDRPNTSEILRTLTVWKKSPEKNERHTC
Method: <Experimental Example 4> Evaluation of Protein Kinase R (PKR) Inhibitory Capacity
(§7) A recombinant human PKR protein was mixed with the compound in a reaction solution (8 mM MOPS pH 7.0, 0.2 mM EDTA, 20 uM RSRSRSRSRSRSRSR, 10 mM Magnesium acetate, 15 uM [gamma-33P-ATP]) and reacted at room temperature for 40 minutes. Then, the reaction was terminated by adding phosphoric acid (0.5%) to the reaction mixture, and 10 ul of the reaction solution was dropped onto a P30 filter. The filter was washed four times in a 0.425% phosphoric acid solution for 4 minutes, then washed once more in methanol, dried, and the PKR activity was measured by scintillation counting. […] The compound was diluted by 1/3 from the highest concentration of 1 uM and treated with a total of 9 concentrations to evaluate the degree of inhibition.

[4] = biological target: T2, recombinant human PERK protein (Homo sapiens, UniProt Q9NZJ5); assay: PKR-like endoplasmic reticulum kinase (PERK) inhibitory capacity, 33P-ATP filter assay; format: biochemical; settings: 15 uM [gamma-33P-ATP], 40 minutes, room temperature
T2 sequence (Q9NZJ5 30-1116): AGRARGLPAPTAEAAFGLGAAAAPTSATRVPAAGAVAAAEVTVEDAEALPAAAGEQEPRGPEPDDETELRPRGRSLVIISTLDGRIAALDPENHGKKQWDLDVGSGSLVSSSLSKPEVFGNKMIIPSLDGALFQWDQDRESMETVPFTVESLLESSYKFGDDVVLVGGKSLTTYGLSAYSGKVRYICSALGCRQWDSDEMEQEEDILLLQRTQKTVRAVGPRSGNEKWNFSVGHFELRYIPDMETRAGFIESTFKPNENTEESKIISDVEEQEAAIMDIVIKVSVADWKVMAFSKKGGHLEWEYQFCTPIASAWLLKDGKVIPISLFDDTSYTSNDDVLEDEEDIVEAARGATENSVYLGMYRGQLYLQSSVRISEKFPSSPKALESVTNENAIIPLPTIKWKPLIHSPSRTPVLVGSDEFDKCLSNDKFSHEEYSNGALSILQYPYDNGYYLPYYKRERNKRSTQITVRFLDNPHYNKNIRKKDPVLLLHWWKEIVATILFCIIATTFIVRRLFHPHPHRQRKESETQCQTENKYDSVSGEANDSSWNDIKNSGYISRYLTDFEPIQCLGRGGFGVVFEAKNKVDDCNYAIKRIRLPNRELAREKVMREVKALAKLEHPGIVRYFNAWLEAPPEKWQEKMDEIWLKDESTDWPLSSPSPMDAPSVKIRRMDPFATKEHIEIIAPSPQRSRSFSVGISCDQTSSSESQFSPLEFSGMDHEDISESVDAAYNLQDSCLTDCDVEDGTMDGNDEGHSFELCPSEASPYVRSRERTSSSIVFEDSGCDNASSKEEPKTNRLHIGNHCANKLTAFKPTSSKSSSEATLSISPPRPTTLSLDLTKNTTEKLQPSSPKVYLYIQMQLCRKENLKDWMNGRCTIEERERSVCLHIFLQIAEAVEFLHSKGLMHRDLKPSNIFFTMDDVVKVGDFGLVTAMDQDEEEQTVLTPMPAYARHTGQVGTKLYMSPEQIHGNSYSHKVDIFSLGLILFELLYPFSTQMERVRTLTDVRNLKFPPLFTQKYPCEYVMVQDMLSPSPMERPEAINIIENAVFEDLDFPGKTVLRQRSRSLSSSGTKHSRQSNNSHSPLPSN
Method: <Experimental Example 1> Evaluation of PKR-Like Endoplasmic Reticulum Kinase (PERK) Inhibitory Capacity
as §7, with “PERK” for “PKR”, “300” for “20”

inhibitory effect on the phosphorylated GCN2 (phosphorylated GCN2) | Phospho-GCN2 inhibition (phosphorylated GCN2) | pIC50 [1] | pIC50 [2] | pIC50 [3] | pIC50 [4] | Compound | inhibitory effect on ATF4 (FIG. 1) (ATF4)
excellent inhibitory effects | ◯ | 6.52 to 7.00 | – | – | – | Cn1c(=O)n(-c2c(F)ccc(NS(=O)(=O)c3cccc4ccccc34)c2F)c(=O)c2cnc(N)nc21 [Example 43, N-(3-(7-amino-1-methyl-2,4-dioxo-1,4-dihydropyrimido[4,5-d]pyrimidin-3(2H)-yl)-2,4-difluorophenyl)naphthalene-1-sulfonamide] | excellent inhibitory effects
excellent inhibitory effects | ◯ | 6.52 to 7.00 | – | – | – | COc1ccc(Br)cc1S(=O)(=O)Nc1ccc(F)c(-n2c(=O)c3cnc(N)nc3n(C)c2=O)c1F [Example 51, N-(3-(7-amino-1-methyl-2,4-dioxo-1,2-dihydropyrimido[4,5-d]pyrimidin-3(4H)-yl)-2,4-difluorophenyl)-5-bromo-2-methoxybenzenesulfonamide] | excellent inhibitory effects
– | – | > 7.00 | 6.52 to 7.00 | 6.00 to 6.52 | > 7.00 | Cn1c(=O)n(-c2c(F)ccc(NS(=O)(=O)c3cc(Cl)cnc3Cl)c2F)c(=O)c2cnc(N)nc21 [Example 57, N-(3-(7-amino-1-methyl-2,4-dioxo-1,4-dihydropyrimido[4,5-d]pyrimidin-3(2H)-yl)-2,4-difluorophenyl)-2,5-dichloropyridine-3-sulfonamide] | –
